Target: T1, house dust mite (Dermatophagoides pteronyssinus) allergen (Der-pl) (Dermatophagoides pteronyssinus, UniProt P08176)
T1 construct: Test dust had been obtained from household vacuum cleaner bags; from tissue; host or cells: house dust (British; vacuum cleaner bags), sieved fraction smaller than 53 microns
T1 sequence (P08176 99-320): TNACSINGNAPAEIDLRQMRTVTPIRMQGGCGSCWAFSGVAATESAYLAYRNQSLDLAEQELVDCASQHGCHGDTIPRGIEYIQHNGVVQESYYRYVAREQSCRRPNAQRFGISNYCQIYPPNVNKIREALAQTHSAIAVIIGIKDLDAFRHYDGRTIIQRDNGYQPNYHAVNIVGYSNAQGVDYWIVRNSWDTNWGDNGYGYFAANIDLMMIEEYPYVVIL
Test: Example 3: test liquid sprayed onto dust in petri dish, Der-pl ELISA
Format: biochemical
Experimental: Dust was collected from vacuum cleaner bags and passed through a series of sieves down to 53 microns. Clean petri dishes were labeled with the chemical to be tested and lined with filter paper. 0.3 g of dust was added to each dish and spread evenly over the filter paper. 0.1 g of dust was then removed from the filter paper for a control sample. The remaining dust was then redistributed evenly over the filter paper. 2.4 g+/−0.2 g of test chemical was sprayed onto the dust sample. The dust sample was left open to the air until the filter paper was dry. The dust was collected into eppendorfs and the weight of dust recovered was measured. 1 ml of 1% Bovine Serum Albumin-Phosphate Buffered Saline-Tween (BSA-PBS-T) was added to the control samples. 1 ml of 5% BSA-PBS-T was added to the test samples. The samples were left overnight in the refrigerator and then centrifuged for 5 minutes at 13,000 rpm. The supernatant was pipetted into an eppendorf for assay by Der-pl ELISA.
The test liquids were: • Distilled water • 2% Tea Tree Oil in distilled water (plus 0.1% Tween) • 2% Citronella Oil in distilled water (plus 0.10% Tween) • 1% Thymol in distilled water (plus 0.8% Tween) • 2% Hinoki Oil in distilled water (plus 0.1% Tween) • 2% Tannic Acid
Five replicates were completed for each test liquid. The allergen content of the control for each replicate was compared with the test sample allergen. The percentage reductions in allergen between the control and the test were determined for each replicate.

Question: Which “allergen reduction more than the water alone tests” value (test liquid sprayed onto dust (2% Tea Tree Oil or 1% Thymol in distilled water plus Tween), average of five replicates, water alone 34.2%) does the source give for Cc1ccc(C(C)C)c(O)c1 [Thymol, 6-isopropyl-m-cresol] here?
Answer: The value was 23.6%.

Question: What about the “significance of allergen reduction versus water tests” value (test liquid sprayed onto dust, t-test versus water) of the same molecule?
Answer: The value was “significant”.

Question: With O=C(OC[C@H]1O[C@@H](OC(=O)c2cc(O)c(O)c(OC(=O)c3cc(O)c(O)c(O)c3)c2)[C@H](OC(=O)c2cc(O)c(O)c(OC(=O)c3cc(O)c(O)c(O)c3)c2)[C@@H](OC(=O)c2cc(O)c(O)c(OC(=O)c3cc(O)c(O)c(O)c3)c2)[C@@H]1OC(=O)c1cc(O)c(O)c(OC(=O)c2cc(O)c(O)c(O)c2)c1)c1cc(O)c(O)c(OC(=O)c2cc(O)c(O)c(O)c2)c1 [tannic acid] as the molecule, how does the average allergen reduction (2% Tannic Acid sprayed onto dust, positive control, five replicates) read?
Answer: The average allergen reduction was 99.15%.

Source: patent US20070259055A1, “Method of deactivating dust mite allergens” (priority 2000, published 2007)
